# Key:
# Test in all cases: ≥ marks a high value that may be exact or a test limit, other limits are often not marked, values filed in µg/mL are converted to µM
# [1] = tested on: Staphylococcus aureus ATCC 25923
# Candida tropicalis = tested on: Candida tropicalis
# Candida glabrata = tested on: Candida glabrata
# Candida krusei = tested on: Candida krusei
# [2] = tested on: Klebsiella pneumoniae ATCC 10031
# [3] = tested on: Enterococcus faecalis ATCC 29212
# [4] = tested on: Staphylococcus aureus ATCC 43300
# Fusarium oxysporum = tested on: Fusarium oxysporum
# [5] = tested on: Salmonella enterica subsp. enterica serovar Enteritidis
# [6] = tested on: Cryptococcus neoformans CM133
# Fusarium solani AZN 6836 = tested on: Fusarium solani AZN 6836
# [7] = tested on: Aspergillus fumigatus ATCC MYA-1163
# [8] = tested on: Aspergillus nidulans AZN 2867
# [9] = tested on: Escherichia coli ATCC 25922
# [10] = tested on: Pseudomonas aeruginosa ATCC 27853
# Rhizopus oryzae AZN 8892 = tested on: Rhizopus oryzae AZN 8892
# [11] = tested on: Candida albicans ATCC 24433
# Aspergillus ustus = tested on: Aspergillus ustus
# [12] = tested on: Staphylococcus haemolyticus
# Listeria monocytogenes = tested on: Listeria monocytogenes
# Escherichia coli 363 = tested on: Escherichia coli 363
# Klebsiella pneumoniae = tested on: Klebsiella pneumoniae
# Bacillus megaterium = tested on: Bacillus megaterium
# Salmonella typhimurium = tested on: Salmonella typhimurium
# Escherichia coli DC2 = tested on: Escherichia coli DC2
# [13] = tested on: Corynebacterium xerosis C875
# Escherichia coli UB1005 = tested on: Escherichia coli UB1005
# [14] = tested on: Staphylococcus epidermidis C621
# [15] = tested on: Legionella pneumophila Paris
# [16] = tested on: Legionella longbeachae ATCC 33484
# [17] = tested on: Legionella feeleii ATCC 35072
# [18] = tested on: Legionella bozemanae ATCC 33217
# [19] = tested on: Legionella oakridgensis ATCC 33761
# [20] = tested on: Legionella pneumophila ATCC 33216
# [21] = tested on: Legionella pneumophila ATCC 33155
# [22] = tested on: Legionella pneumophila Corby
# [23] = tested on: Legionella pneumophila Lens
# [24] = tested on: Legionella micdadei ATCC 33218
# Bacillus megaterium F04 = tested on: Bacillus megaterium F04
# [25] = tested on: Legionella pneumophila ATCC 33215
# [26] = tested on: Klebsiella pneumoniae ATCC 13883
# [27] = tested on: Salmonella enterica subsp. enterica serovar Typhimurium ATCC 14028
# [28] = tested on: Listeria monocytogenes ATCC 19115
# [29] = tested on: Staphylococcus aureus ATCC BAA-39
# [30] = tested on: Salmonella enterica subsp. enterica serovar Typhimurium ATCC 700408
structure (smiles),measurement,setting,value
CC(C)C[C@@H]1NC(=O)[C@@H](NC(=O)[C@@H](N)CC(=O)O)CSSC[C@@H](C(=O)O)NC(=O)CNC(=O)[C@H](CCC(=O)O)NC(=O)[C@@H]2CSSC[C@@H]3NC(=O)[C@H](C(C)C)NC(=O)[C@H](CCCN=C(N)N)NC(=O)[C@H](CCCN=C(N)N)NC(=O)[C@@H]4CSSC[C@H](NC(=O)[C@H](CCCCN)NC(=O)[C@H](CC(C)C)NC(=O)[C@H](CO)NC(=O)[C@@H]5CCCN5C(=O)[C@H](CO)NC(=O)[C@H](CSSC[C@H](NC(=O)[C@@H]5CCCN5C(=O)CNC(=O)[C@H](CCCCN)NC(=O)[C@H](Cc5ccc(O)cc5)NC(=O)[C@H](CCCN=C(N)N)NC(=O)CNC(=O)[C@H](CO)NC1=O)C(=O)N[C@@H](C)C(=O)N[C@@H](C(C)C)C(=O)N[C@@H](Cc1c[nH]c5ccccc15)C(=O)N[C@@H](CC(=O)O)C(=O)N[C@@H](CC(N)=O)C(=O)N[C@@H](CCC(=O)O)C(=O)N[C@@H]([C@@H](C)O)C(=O)N4)NC(=O)[C@H](Cc1cnc[nH]1)NC(=O)CNC(=O)[C@H](CO)NC(=O)[C@H](CO)NC(=O)[C@H](CCCN=C(N)N)NC(=O)CNC(=O)[C@H](CCC(=O)O)NC(=O)[C@H](CCC(=O)O)NC(=O)[C@H](CCCCN)NC3=O)C(=O)N[C@@H](Cc1c[nH]c3ccccc13)C(=O)N2 [DCLSGRYKGPCAVWDNETCRRVCKEEGRSSGHCSPSLKCWCEGC],MIC,[1],> 50 µM
same,MIC,Candida tropicalis,≥ 50 µM
same,MIC,Candida glabrata,≥ 50 µM
same,MIC,Candida krusei,≥ 50 µM
same,MIC,[2],≥ 50 µM
same,MIC,[3],> 50 µM
same,MIC,[4],> 50 µM
same,MIC,Fusarium oxysporum,6.25 µM
same,MIC,[5],≥ 50 µM
same,MIC,[6],≥ 50 µM
same,MIC,Fusarium solani AZN 6836,25 µM
same,MIC,[7],6.25 µM
same,MIC,[8],≥ 50 µM
same,MIC,[9],> 50 µM
same,MIC,[10],> 50 µM
same,MIC,Rhizopus oryzae AZN 8892,≥ 50 µM
same,MIC,[11],≥ 50 µM
same,MIC,Aspergillus ustus,25 µM
CC[C@H](C)[C@H](NC(=O)[C@H](CCSC)NC(=O)[C@H](CC(C)C)NC(=O)[C@H](CC(C)C)NC(=O)[C@@H](NC(=O)[C@H](Cc1c[nH]c2ccccc12)NC(=O)[C@H](CC(C)C)NC(=O)[C@H](Cc1c[nH]c2ccccc12)NC(=O)[C@@H](NC(=O)[C@H](CCCCN)NC(=O)[C@H](CO)NC(=O)[C@H](CCCNC(=N)N)NC(=O)[C@H](CC(C)C)NC(=O)CN)[C@@H](C)CC)C(C)C)C(=O)N[C@@H](Cc1c[nH]c2ccccc12)C(=O)N[C@@H](CCC(N)=O)C(=O)N[C@@H](CCC(=O)O)C(=O)N[C@@H](CO)C(=O)N[C@@H](CC(N)=O)C(=O)N[C@@H](CCCCN)C(=O)N[C@@H](Cc1ccccc1)C(=O)N[C@@H](CCCCN)C(=O)N[C@@H](CCCCN)C(=O)N[C@@H](CCSC)C(=O)O [GLRSKIWLWVLLMIWQESNKFKKM],MIC,[12],12.5 µM
same,MIC,Listeria monocytogenes,0.4 µM
same,MIC,Escherichia coli 363,3.1 µM
same,MIC,Klebsiella pneumoniae,12.5 µM
same,MIC,Bacillus megaterium,0.4 µM
same,MIC,Salmonella typhimurium,3.1 µM
CC(C)C[C@H](NC(=O)[C@H](C)NC(=O)[C@H](C)NC(=O)[C@H](C)NC(=O)[C@H](CCCCN)NC(=O)[C@@H](N)CCCCN)C(=O)N[C@@H](C)C(=O)N[C@@H](C)C(=O)N[C@@H](C)C(=O)N[C@@H](C)C(=O)N[C@@H](C)C(=O)N[C@@H](CC(C)C)C(=O)N[C@@H](C)C(=O)N[C@@H](C)C(=O)N[C@@H](Cc1c[nH]c2ccccc12)C(=O)N[C@@H](C)C(=O)N[C@@H](C)C(=O)N[C@@H](CC(C)C)C(=O)N[C@@H](C)C(=O)N[C@@H](C)C(=O)N[C@@H](C)C(=O)N[C@@H](CCCCN)C(=O)N[C@@H](CCCCN)C(=O)N[C@@H](CCCCN)C(=O)N[C@@H](CCCCN)C(N)=O [KKAAALAAAAALAAWAALAAAKKKK],MIC,Escherichia coli DC2,16 µM
same,MIC,[13],0.25 µM
same,MIC,Escherichia coli UB1005,≥ 32 µM
same,MIC,[14],2 µM
CC[C@H](C)[C@H](NC(=O)[C@H](CC(C)C)NC(=O)[C@H](CCCCN)NC(=O)[C@@H](NC(=O)[C@H](CC(C)C)NC(=O)[C@H](CC(=O)O)NC(=O)CNC(=O)[C@@H](NC(=O)[C@@H](NC(=O)[C@H](CO)NC(=O)[C@@H](NC(=O)[C@@H](NC(=O)[C@H](CC(=O)O)NC(=O)[C@H](C)NC(=O)[C@H](C)NC(=O)[C@@H](N)CCSC)[C@@H](C)CC)[C@@H](C)CC)[C@@H](C)O)[C@@H](C)CC)C(C)C)C(=O)N[C@H](C(=O)N[C@@H](CC(N)=O)C(=O)N[C@H](C(=O)N[C@H](C(=O)N[C@@H](CCCCN)C(=O)N[C@@H](CCCCN)C(=O)N[C@@H](Cc1ccccc1)C(=O)N[C@@H](CCC(N)=O)C(=O)N[C@@H](CCCCN)C(=O)O)C(C)C)[C@@H](C)O)[C@@H](C)CC [MAADIISTIGDLVKLIINTVKKFQK],MIC,[15],18.1 µM
same,MIC,[16],18.1 µM
same,MIC,[17],18.1 µM
same,MIC,[18],18.1 µM
same,MIC,[19],18.1 µM
same,MIC,[20],18.1 µM
same,MIC,[21],18.1 µM
same,MIC,[22],18.1 µM
same,MIC,[23],1.09 µM
same,MIC,[24],18.1 µM
same,MIC,Bacillus megaterium F04,4.35 µM
same,MIC,[25],18.1 µM
CC(C)C[C@H](NC(=O)[C@H](CCCN=C(N)N)NC(=O)CNC(=O)[C@H](CCC(N)=O)NC(=O)[C@@H]1CCCN1C(=O)[C@H](CC(C)C)NC(=O)[C@H](CCCCN)NC(=O)[C@H](Cc1ccccc1)NC(=O)[C@@H](NC(=O)[C@@H]1CCCN1C(=O)[C@H](CCC(N)=O)NC(=O)[C@H](CO)NC(=O)[C@H](Cc1ccccc1)NC(=O)[C@H](CCCN=C(N)N)NC(=O)[C@@H](N)CCC(N)=O)[C@@H](C)O)C(=O)N[C@H](C(=O)N[C@@H](CC(C)C)C(=O)N[C@@H](CO)C(=O)N[C@@H](CCCN=C(N)N)C(=O)N[C@@H](CCCCN)C(=O)N[C@@H](Cc1ccccc1)C(=O)O)[C@@H](C)O [QRFSQPTFKLPQGRLTLSRKF],MIC,[26],9.86 µM
same,MIC,[1],39.4 µM
same,MIC,[27],9.86 µM
same,MIC,[4],39.4 µM
same,MIC,[28],9.86 µM
same,MIC,[9],9.86 µM
same,MIC,[29],≥ 39.4 µM
same,MIC,[30],9.86 µM

# Reference: DBAASP
